From patent publication US20040029965A1, “Formulations for reducing or eliminating toxicity of enviromental hormones containing ursodeoxycholic acid” (priority 2000, published 2004)

System: Ovariectomized female B6C3F1 mice
Assay: Uterus weight changes by bisphenol A (uterine proliferation)
Assay type: in vivo
Experimental: Ovariectomized female B6C3F1 mice of 5 weeks old, the average weight of which was 18 to 22 g and had been bred in CRJ, were purchased. They were acclimated under the constant breeding conditions, i.e. the constant temperature of 24±1° C., the humidity of 60±10% and the light and darkness cycle of 12 hours, for one week and then, utilized in the experiment. The animals were supplied with solid feed purchased from Purina and supplied with water ad libitum. After acclimation, test materials dissolved in corn oil were subcutaneously injected once a day for 4 days. The test materials used herein, stock solutions of bisphenol A and UDCA were prepared using ethanol. 2 mg of bisphenol A dissolved in 0.2 ml of corn oil was administered to the mice alone or in combination with UDCA once a day. The administration dose of UDCA was 0.2 or 2.0 mg, and corn oil was administered to the solvent control.
The results are expressed as Mean±Standard Deviation values. ANOVA was performed to evaluate the mean distribution of administered groups. In case that the significance was recognized in ANOVA, the Student's t-test was carried out in the levels of p<0.05 and p<0.01.

CC(C)(c1ccc(O)cc1)c1ccc(O)cc1 [Bisphenol A, bisphenol A]
increase of the weight of uterus (2 mg of bisphenol A once a day, versus corn oil control): about two-fold increased
Mean weight of uterus ± SD (Bisphenol A 2 mg/day s.c. for 4 days, alone): 13.5 ± 1.75
